Reference: US4829076A, “Novel dihydropyridines having calcium antagonistic and antihypertensive activity” (Alkaloida Vegyeszeti Gyar, priority 1986, dated 1989)
Like-named read-outs stand apart in the source and are kept apart here.

Assays:
[1] = test system: anesthetized, normotensive cats; experiment: Hypotensive effect in anesthetized, normotensive cats; format: in vivo, cat; conditions: 1 mg/kg id.
Description: A tube was inserted in the trachea of cats anesthetized with ip.35 mg/kg of pentobarbital sodium to ensure spontaneous respiration. The femoral artery and vein were both cannulated unilaterally. The vegetative test compounds (adrenaline, isoproterenol) were administered through the venous cannule. The mean arterial blood pressure was measured by joining the arterial cannule to a Statham P23Db pressure transducer and electromanometer. The heart rate was determined by a cardiotachometer triggered by arterial pulse-wave.
Various doses of the test compounds were administered through a cannule inserted into the duodenum.

[2] = test system: PGF2alpha induced uterus contractions (isolated rat uterus); experiment: In vitro uterus relaxant activity in the isolated rat uterus (inhibition of PGF2alpha induced contraction); conditions: 10^-6 M test compound
Description: The test was performed according to the method of Gaddum and Hammeed [Brit. […] The inhibitory activity of 10^-6 M doses of the test compounds on the PGF2alpha induced uterus contractions was determined.

[3] = test system: spontaneously hypertensive conscious rats; experiment: Antihypertensive effect in spontaneously hypertensive conscious rats ("SH" rats); format: in vivo, rat (Wistar-Okamoto); conditions: for change in vivo at 10 mg/kg / change in vivo at 2.5 mg/kg: Rattus norvegicus, po
Description: The blood pressure of rats was measured before treatment and hourly after drug administration till the 24th posttreatment hour. The test compounds were administered orally, by gavage.

[4] = 10 mg/kg p.o., 2 h, read-out: Systolic blood pressure reduction in %, 2 h
[5] = 10 mg/kg p.o., 5 h, read-out: Systolic blood pressure reduction in %, 5 h
[6] = 10 mg/kg p.o., 24 h, read-out: Systolic blood pressure reduction in %, 24 h

Compound | Mean arterial pressure, 5 min [1] | Mean arterial pressure, 15 min [1] | Mean arterial pressure, 30 min [1] | Mean arterial pressure, 60 min [1] | Mean arterial pressure, 120 min [1] | Inhibition of PGF2alpha induced contraction [2] | Systolic blood pressure, 2 h ([3]; 10 mg/kg p.o., 2 h) | Systolic blood pressure, 5 h ([3]; 10 mg/kg p.o., 5 h) | Systolic blood pressure, 24 h ([3]; 10 mg/kg p.o., 24 h) | change in vivo at 10 mg/kg [3, 4] | change in vivo at 10 mg/kg [3, 5] | change in vivo at 10 mg/kg [3, 6] | Systolic blood pressure, 2 h ([3]; 2.5 mg/kg p.o., 2 h) | Systolic blood pressure, 5 h ([3]; 2.5 mg/kg p.o., 5 h) | Systolic blood pressure, 24 h ([3]; 2.5 mg/kg p.o., 24 h) | change in vivo at 2.5 mg/kg ([3]; 2.5 mg/kg p.o., 2 h, read-out: Systolic blood pressure reduction in %, 2 h) | change in vivo at 2.5 mg/kg ([3]; 2.5 mg/kg p.o., 5 h, read-out: Systolic blood pressure reduction in %, 5 h) | change in vivo at 2.5 mg/kg ([3]; 2.5 mg/kg p.o., 24 h, read-out: Systolic blood pressure reduction in %, 24 h)
COC(=O)C1=C(C)NC(C)=C(C(=O)OC)C1c1ccccc1NC(=O)c1ccc(Cl)cc1 [Example 6] | 115 Hgmm | 85 Hgmm | 65 Hgmm | 70 Hgmm | 75 Hgmm | – | – | – | – | – | – | – | – | – | – | – | – | –
COC(=O)C1=C(C)NC(C)=C(C(=O)OC)C1c1ccccc1NC(=O)c1ccccc1[N+](=O)[O-] [Example 8] | – | – | – | – | – | 96.7% | – | – | – | – | – | – | – | – | – | – | – | –
COC(=O)C1=C(C)NC(C)=C(C(=O)OC)C1c1ccccc1NC(=O)C=Cc1ccccc1 [Example 9] | 125 Hgmm | 85 Hgmm | 65 Hgmm | 75 Hgmm | 102 Hgmm | 94.3% | 166.6 Hgmm | 166.6 Hgmm | 192.0 Hgmm | -13% | -13% | 1% | – | – | – | – | – | –
COC(=O)C1=C(C)NC(C)=C(C(=O)OC)C1c1ccccc1NC(=O)c1ccco1 [Example 10] | 60 Hgmm | 70 Hgmm | 80 Hgmm | 85 Hgmm | – | 94.0% | – | – | – | – | – | – | – | – | – | – | – | –
COC(=O)C1=C(C)NC(C)=C(C(=O)OC)C1c1ccccc1NC(=O)C=Cc1ccc([N+](=O)[O-])cc1 [Example 11] | 147 Hgmm | 130 Hgmm | 125 Hgmm | 120 Hgmm | 132 Hgmm | 77.8% | 140 Hgmm | 157.8 Hgmm | 178.8 Hgmm | -26% | -16% | -5% | – | – | – | – | – | –
COC(=O)C1=C(C)NC(C)=C(C(=O)OC)C1c1ccccc1NC(=O)c1ccccc1 [Example 12] | 115 Hgmm | 92 Hgmm | 90 Hgmm | 97 Hgmm | 145 Hgmm | 83.3% | 164 Hgmm | 166.0 Hgmm | 190.8 Hgmm | -14% | -13% | 0% | – | – | – | – | – | –
COC(=O)C1=C(C)NC(C)=C(C(=O)OC)C1c1ccccc1NC(=O)c1ccc(OC)cc1 [Example 14] | 150 Hgmm | 75 Hgmm | 85 Hgmm | 95 Hgmm | 110 Hgmm | – | 165 Hgmm | 164.5 Hgmm | 206.8 Hgmm | -17% | -17% | 4% | – | – | – | – | – | –
CCCCCCCC(=O)Nc1ccccc1C1C(C(=O)OC)=C(C)NC(C)=C1C(=O)OC [Example 18] | 75 Hgmm | – | 100 Hgmm | 100 Hgmm | – | – | 179.2 Hgmm | 178 Hgmm | 192.6 Hgmm | -11% | -11% | -4% | – | – | – | – | – | –
COC(=O)C1=C(C)NC(C)=C(C(=O)OC)C1c1ccccc1NC(=O)c1cccc(C)c1 [Example 20] | 140 Hgmm | – | 105 Hgmm | 105 Hgmm | 120 Hgmm | – | – | – | – | – | – | – | – | – | – | – | – | –
COC(=O)C1=C(C)NC(C)=C(C(=O)OC)C1c1ccccc1NC(=O)c1ccccc1C [Example 21] | 90 Hgmm | 95 Hgmm | 100 Hgmm | 110 Hgmm | 110 Hgmm | – | 175.2 Hgmm | 167.8 Hgmm | 201.4 Hgmm | -10% | -14% | 4% | – | – | – | – | – | –
CCc1ccc(C(=O)Nc2ccccc2C2C(C(=O)OC)=C(C)NC(C)=C2C(=O)OC)cc1 [Example 22] | 120 Hgmm | 110 Hgmm | 105 Hgmm | 85 Hgmm | 85 Hgmm | – | – | – | – | – | – | – | 142.2 Hgmm | 144.0 Hgmm | 191.4 Hgmm | -27% | -26% | -2%
COCCOC(=O)C1=C(C)NC(C)=C(C(=O)OC)C1c1ccccc1NC(=O)c1ccc([N+](=O)[O-])cc1 (centres unmarked) [Example 28] | 137 Hgmm | 105 Hgmm | 97 Hgmm | 100 Hgmm | 115 Hgmm | – | 174.8 Hgmm | 163.5 Hgmm | 202.4 Hgmm | -10% | -16% | 4% | – | – | – | – | – | –
COCCOC(=O)C1=C(C)NC(C)=C(C(=O)OC)C1c1ccccc1NC(=O)C(F)(F)F (centres unmarked) [Example 36, 2,6-Dimethyl-3-methoxycarbonyl-5-(2-methoxyethoxycarbonyl)-4-(2-trifluoroacetamidophenyl)-1,4-dihydropyridine] | – | – | – | – | – | – | 172.8 Hgmm | 172.4 Hgmm | 222.0 Hgmm | -19% | -19% | 4% | – | – | – | – | – | –
COC(=O)C1=C(C)NC(C)=C(C(=O)OC(C)C)C1c1ccccc1NC(=O)C(F)(F)F (centres unmarked) [Example 37, 2,6-Dimethyl-3-isopropoxycarbonyl-5-methoxycarbonyl-4-(2-trifluoroacetamidophenyl)-1,4-dihydrophyridine] | 150 Hgmm | 100 Hgmm | 100 Hgmm | 100 Hgmm | 135 Hgmm | – | – | – | – | – | – | – | – | – | – | – | – | –
COC(=O)C1=C(C)NC(C)=C(C(=O)OC)C1c1ccccc1NS(C)(=O)=O [Example 41, 2,6-Dimethyl-4-n2-methanesulfonylamidophenyl)-3,5-bis(methoxycarbonyle-1,4-dihydropyridine] | 90 Hgmm | 80 Hgmm | 85 Hgmm | – | – | – | – | – | – | – | – | – | – | – | – | – | – | –
COC(=O)C1=C(C)NC(C)=C(C(=O)OC)C1c1ccccc1NS(=O)(=O)c1ccc([N+](=O)[O-])cc1 [Example 42, 2,6-Dimethyl-3,5bis(methoxycarbonyl)-4-[2-(4-nitrobenzenesulfonamido)-phenyl]-1,4-dihydropyridine] | – | – | – | – | – | 88.0% | – | – | – | – | – | – | – | – | – | – | – | –
